Experimental findings from patent publication US7468369B2, “Sulfonyl pyrrolidines, method for producing the same and their use as drugs” (Sanofi-Aventis, priority 2005, dated 2008) are described below.

Molecules are shown by their SMILES.

The test system of this assay is human ABCA1 promoter. Briefly: ABCA1 promoter test (luciferase reporter in stably transfected THP1 cell line). In kind it is cell-based. The note with it: Homo sapiens, THP-1; ABCA1 reporter cell line (THP1, PMA-differentiated), 24 h incubation, luciferase chemiluminescence; read-out: E50 ABCA1. The method, then:
The potency of substances which activate expression of the human ABCA1 gene via its promoter is analyzed by using a stably transfected THP1 cell line (human monocyte cell line) which is referred to herein as ABCA1 reporter cell line. It contains a fragment, 3.2 kb in size and stably integrated into the genome, of the human ABCA1 promoter in front of a luciferase reporter element. Expression of the luciferase reporter gene is only low without addition of an ABCA1 expression activator. The substances stimulating ABCA1 expression bring about, via activation of the ABCA1 promoter, an enhanced expression of the luciferase reporter gene. The luciferase which is formed can be detected via an appropriate substrate by means of chemiluminescence.
Construction of the Cell Line
The ABCA1 reporter line was prepared as follows: firstly the neomycin resistance gene (Acc. No.: AJ000156) was introduced into the luciferase reporter plasmid pLG3basic (#1751, Promega) 3′ below the luciferase reporter element. Subsequently, an ABCA1 promoter fragment, 3.2 kb in size and amplified from human genomic DNA (#6550-1, Clontech) by the polymerase chain reaction, was cloned in 5′ above the luciferase reporter element. The reporter plasmid produced in this way was called pGL3BN-ABCA1P. Luciferase expression in this plasmid is controlled by the ABCA1 promoter. Cloning and sequencing of the construct took place in analogy to the description in Sambrook J et al. (Molecular cloning, Cold Spring Harbor Laboratory Press, 1989). For stable transfection into THP1 cells, firstly pGL3BN-ABCA1P was linearized with a restriction endonuclease and then introduced into the THP1 cells as stated in Ausubel, F. M. et al. (Current protocols in molecular biology, Vol. 1-3, John Wiley & Sons, Inc., 1995).
The activity of ABCA1 expression activators is determined in a 3-day test which is described below:
The ABCA1 reporter cell line comprises suspension cells. These are cultured until the concentration is 0.5×10^6 cells/ml in RPMI medium (#52400-025, Invitrogen) which is mixed with the following additions: 10% FCS (fetal calf serum; #16000-044, invitrogen), 0.5 mg/ml Geneticin (#10131-019, invitrogen) and 1% penicillin-streptomycin solution (#15140-122, invitrogen). The culturing takes place in standard cell culture flasks (#353112, Becton Dickinson) in a cell culture incubator at 37° C. in the presence of 5% CO2.
For the ABCA1 promoter test, the suspension cells are centrifuged at 1200 rpm in 50 ml tubes. The supernatant is aspirated off, and the pellet is resuspended in 15 ml of RPMI medium and counted in a cell counter. After dilution to 175 000 cells/ml, 0.1 μg/ml PMA (phorbol 12-myristate 13-acetate, #8139-5MG, Sigma) is added in order to induce differentiation of the monocytic THP1 suspension cells into adherent macrophages. 35 000 cells in each well are seeded in a 96-well microtiter plate with clear plastic base (#3610, Corning Costar). The plates are incubated in a cell culture incubator at 37° C. and 5% CO2 for 24 h.
The ABCA1 expression activators to be tested are dissolved in a concentration of 10 mM in DMSO. This stock solution is diluted in the RPMI medium (mixed with 0.1 μg/ml PMA) described above. Test substances are tested in 11 different concentrations in the range from […] to 330 pM. The medium of the ABCA1 reporter cell line seeded on day 1 is completely removed by aspiration and the diluted test substances are immediately added to the cells. The dilution and addition of the substances takes place with a pipetting robot (Beckman FX). The final volume of the test substances diluted in medium is 100 μl per well of a 96-well microtiter plate. The DMSO concentration in the test is less than 0.1% v/v in order to avoid cytotoxic effects of the solvent.
The test plates are incubated in an incubator at 37° C. and 5% CO2 for 24 h.
The ABCA1 reporter cells treated with the test substances are removed from the incubator and the medium is aspirated off. […]

For the compound `CC(=O)c1ccc(N2CCN(C(=O)[C@@H]3CN(S(=O)(=O)c4cccs4)C[C@H]3c3ccccc3)CC2)cc1` (racemic) [Example 7, 1-(4-{4-[3,4-trans-4-Phenyl-1-(thiophene-2-sulfonyl)pyrrolidine-3-carbonyl]-piperazin-1-yl}phenyl)ethanone], the EC50 was found to be 13.2 µM.
To `COc1ccccc1N1CCN(C(=O)[C@@H]2CN(S(=O)(=O)c3cccs3)C[C@H]2c2ccccc2)CC1` (racemic) [Example 24, [4-(2-Methoxyphenyl)piperazin-1-yl]-[3,4-trans-4-phenyl-1-(thiophene-2-sulfonyl)pyrrolidin-3-yl]methanone] belongs 15 µM.
To `COc1ccccc1N1CCN(C(=O)[C@@H]2CN(S(=O)(=O)c3cc(Br)c(Br)s3)C[C@H]2c2ccccc2)CC1` (racemic) [Example 25, [1-(4,5-Dibromothiophene-2-sulfonyl)-3,4-trans-4-phenylpyrrolidin-3-yl]-[4-(2-methoxyphenyl)piperazin-1-yl]methanone] belongs 3.81 µM.
With `COc1ccccc1N1CCN(C(=O)[C@@H]2CN(S(=O)(=O)c3ccc(Cl)s3)C[C@H]2c2ccccc2)CC1` (racemic) [Example 26, [1-(5-Chlorothiophene-2-sulfonyl)-3,4-trans-4-phenylpyrrolidin-3-yl]-[4-(2-methoxyphenyl)piperazin-1-yl]methanone] the figure was 2.94 µM; with `COc1ccccc1N1CCN(C(=O)[C@@H]2CN(S(=O)(=O)c3cc(Cl)c(Cl)s3)C[C@H]2c2ccccc2)CC1` (racemic) [Example 27, [1-(4,5-Dichlorothiophene-2-sulfonyl)-3,4-trans-4-phenylpyrrolidin-3-yl]-[4-(2-methoxyphenyl)piperazin-1-yl]methanone], 6.99 µM.
Take `COc1ccccc1N1CCN(C(=O)[C@@H]2CN(S(=O)(=O)c3sc4ccc(Cl)cc4c3C)C[C@H]2c2ccccc2)CC1` (racemic) [Example 29, [1-(5-Chloro-3-methylbenzo[b]thiophene-2-sulfonyl)-3,4-trans-4-phenyl-pyrrolidin-3-yl]-[4-(2-methoxyphenyl)piperazin-1-yl]methanone]: the EC50 was 5.61 µM.
Take `O=C([C@@H]1CN(S(=O)(=O)c2cccs2)C[C@H]1c1ccccc1)N1CCN(c2cccc(C(F)(F)F)c2)CC1` (racemic) [Example 30, [3,4-trans-4-Phenyl-1-(thiophene-2-sulfonyl)pyrrolidin-3-yl]-[4-(3-trifluoromethylphenyl)piperazin-1-yl]methanone]: the EC50 worked out at 3.22 µM.
With `O=C([C@@H]1CN(S(=O)(=O)c2cc(Br)c(Br)s2)C[C@H]1c1ccccc1)N1CCN(c2cccc(C(F)(F)F)c2)CC1` (racemic) [Example 31, [1-(4,5-Dibromothiophene-2-sulfonyl)-3,4-trans-4-phenylpyrrolidin-3-yl]-[4-(3-trifluoromethylphenyl)piperazin-1-yl]methanone] the figure was 1.77 µM; with `O=C([C@@H]1CN(S(=O)(=O)c2ccc(Cl)s2)C[C@H]1c1ccccc1)N1CCN(c2cccc(C(F)(F)F)c2)CC1` (racemic) [Example 32, [1-(5-Chlorothiophene-2-sulfonyl)-3,4-trans-4-phenylpyrrolidin-3-yl]-[4-(3-trifluoromethylphenyl)piperazin-1-yl]methanone], 16.2 µM.
With `O=C([C@@H]1CN(S(=O)(=O)c2cc(Cl)c(Cl)s2)C[C@H]1c1ccccc1)N1CCN(c2cccc(C(F)(F)F)c2)CC1` (racemic) [Example 33, [1-(4,5-Dichlorothiophene-2-sulfonyl)-3,4-trans-4-phenylpyrrolidin-3-yl]-[4-(3-trifluoromethylphenyl)piperazin-1-yl]methanone] the figure was 6.59 µM; with `Cc1ccc(N2CCN(C(=O)[C@@H]3CN(S(=O)(=O)c4cccs4)C[C@H]3c3ccccc3)CC2)c(C)c1` (racemic) [Example 36, [4-(2,4-Dimethylphenyl)piperazin-1-yl]-[3,4-trans-4-phenyl-1-(thiophene-2-sulfonyl)pyrrolidin-3-yl]methanone], 3.6 µM.
With `Cc1ccc(N2CCN(C(=O)[C@@H]3CN(S(=O)(=O)c4cc(Br)c(Br)s4)C[C@H]3c3ccccc3)CC2)c(C)c1` (racemic) [Example 37, [1-(4,5-Dibromothiophene-2-sulfonyl)-3,4-trans-4-phenylpyrrolidin-3-yl]-[4-(2,4-dimethylphenyl)piperazin-1-yl]methanone] the figure was 2.57 µM.
Turning to `Cc1ccc(N2CCN(C(=O)[C@@H]3CN(S(=O)(=O)c4ccc(Cl)s4)C[C@H]3c3ccccc3)CC2)c(C)c1` (racemic) [Example 38, [1-(5-Chlorothiophene-2-sulfonyl)-3,4-trans-4-phenylpyrrolidin-3-yl]-[4-(2,4-dimethylphenyl)piperazin-1-yl]methanone], the EC50 is 2.66 µM.
To `Cc1ccc(N2CCN(C(=O)[C@@H]3CN(S(=O)(=O)c4cc(Cl)c(Cl)s4)C[C@H]3c3ccccc3)CC2)c(C)c1` (racemic) [Example 39] belongs 3.73 µM; to `Cc1ccc(N2CCN(C(=O)[C@@H]3CN(S(=O)(=O)c4cccs4)C[C@H]3c3ccccc3)CC2)cc1C` (racemic) [Example 42, [4-(3,4-Dimethylphenyl)piperazin-1-yl]-[3,4-trans-4-phenyl-1-(thiophene-2-sulfonyl)pyrrolidin-3-yl)methanone], 18.8 µM; to `Cc1ccc(N2CCN(C(=O)[C@@H]3CN(S(=O)(=O)c4cc(Br)c(Br)s4)C[C@H]3c3ccccc3)CC2)cc1C` (racemic) [Example 43, [1-(4,5-Dibromothiophene-2-sulfonyl)-3,4-trans-4-phenylpyrrolidin-3-yl]-[4-(3,4-dimethylphenyl)piperazin-1-yl]methanone], 4.08 µM.
To `Cc1ccc(N2CCN(C(=O)[C@@H]3CN(S(=O)(=O)c4ccc(Cl)s4)C[C@H]3c3ccccc3)CC2)cc1C` (racemic) [Example 44, [1-(5-Chlorothiophene-2-sulfonyl)-3,4-trans-4-phenylpyrrolidin-3-yl]-[4-(3,4-dimethylphenyl)piperazin-1-yl]methanone] belongs 15.1 µM; to `Cc1ccc(N2CCN(C(=O)[C@@H]3CN(S(=O)(=O)c4cc(Cl)c(Cl)s4)C[C@H]3c3ccccc3)CC2)cc1C` (racemic) [Example 45], 4.62 µM.
To `Cc1ccc(C)c(N2CCN(C(=O)[C@@H]3CN(S(=O)(=O)c4ccc(Cl)s4)C[C@H]3c3ccccc3)CC2)c1` (racemic) [Example 48, [1-(5-Chlorothiophen-2-sulfonyl)-3,4-trans-4-phenylpyrrolidin-3-yl]-[4-(2,5-dimethylphenyl)piperazin-1-yl]methanone] belongs 0.706 µM.
`Cc1ccc(C)c(N2CCN(C(=O)[C@@H]3CN(S(=O)(=O)c4cc(Cl)c(Cl)s4)C[C@H]3c3ccccc3)CC2)c1` (racemic) [Example 49, [1-(4,5-Dichlorothiophene-2-sulfonyl)-3,4-trans-4-phenylpyrrolidin-3-yl]-[4-(2,5-dimethylphenyl)piperazin-1-yl]methanone]: the EC50 came out at 1.95 µM.
With `COC(=O)c1cc(C)c(S(=O)(=O)N2C[C@@H](C(=O)N3CCN(c4cc(C)ccc4C)CC3)[C@H](c3ccccc3)C2)s1` (racemic) [Example 50, Methyl 5-{3,4-trans-3-[4-(2,5-dimethylphenyl)piperazine-1-carbonyl]-4-phenylpyrrolidine-1-sulfonyl}-4-methylthiophene-2-carboxylate] the figure was 7.34 µM.
